We go through 1 molecule from patent publication US20040175353A1, “Cyanoacrylate compositions for prophylactic or therapeutic treatment of diseases manifesting themselves in and/or damage cutaneous tissue” (priority 2001, published 2004).

For the test, the system named is HSV-I infection around the mouth. The test is described as follows: Initial studies: HSV-I infection around the mouth treated with ethyl cyanoacrylate (Examples 1-3). Format: in vivo, human. As for the experimental part: Examples 1-3 are initial studies describing three patient groups at different stages of development of HSV-I infection around the mouth which has been treated with ethyl cyanoacrylate (LOCTITE 411, Henkel Loctite Adhesive Ltd.). The infected areas were applied about ⅓ drop of liquid ethyl cyanoacrylate by means of a toothpick and the polymerization was allowed to pass off.
Patient group 1 consisted of three patients without visible symptoms. The group was treated prophylactically as mentioned above under latent HSV-I infection, pronounced prickling and itching in the mucous membrane at the lip being the cause of the treatment.
Patient group 2 consisted of 2 patients with visible blisters in the corner of the mouth due to infection with HSV-I. The group was treated initially for 3 hours, after which the ethyl cyanoacrylate coat with content of virus and tissue was removed. The treatment was repeated 2 times for 24 hours, after which the coat was removed.
Patient group 3 consisted of 4 patients all having large suppurating crusts in a large area around the mouth. The group were initially treated by applying liquid ethyl cyanoacrylate which was allowed to polymerise. The polymer coat with adhering crust was removed immediately after polymerization, and the treatment repeated 4 times for 24 hours.

Structures are written as SMILES.

Take `C=C(C#N)C(=O)OCC` [ethyl cyanoacrylate]: where the note is “Patient group 1: three patients, latent HSV-I infection without visible symptoms, prophylactic treatment, coat removed after overnight”, the “development of visible blisters or wounds” value is “no patients in Patient group 1 developed visible blisters or wounds”. Besides, the “visible traces, symptoms and scar formation after treatment” value (Patient group 2: 2 patients with visible blisters in corner of mouth, 3 hours, then repeated 2 times for 24 hours) was “no visible traces after the outbreak and both patients were free of symptoms without scar formation”. For the same molecule, the “symptoms and scar formation after treatment” value reads like this: (Patient group 3, fourth patient, treated for further 24 hours) “subsequently had no symptoms or scar formation”; (Patient group 3: 4 patients with large suppurating crusts, crust pulled off, treatment repeated 4 times for 24 hours) “three patients had no symptoms or scar formation”.
